US20110093959A1, “CRYPTOTIS PARVA SCREENING MODEL FOR ANTIEMETIC POTENTIAL” (priority 2008, published 2011)
Entries after “also recorded” stand apart in the source; their conditions may differ.

What was measured:
Assay type in all cases: in vivo, Cryptotis parva
[1] = Analysis of SP in serum, gut and brain tissues following intraperitoneal injection of an emetic dose of SP; settings: SP 50 mg/kg i.p.
Method: Different groups of shrews were injected with a 50 mg/kg emetic dose of SP (i.p.) and were sacrificed at 5 min, 15 min, and 30 min (n=5-6 animals per group) post injection. Blood serum as well as two different brain (frontal cortex and brain stem) and gut (duodenum and jejunum) tissue samples were collected for the determination of SP levels relative to a saline-treated shrew control group (n=6). The brain SP concentration was determined in all of the cited exposure times, whereas gut SP tissue levels were analyzed for the 0 min (control), 5 min and 15 min exposure periods Likewise, serum SP concentrations were determined at the 0 min, 5 min and 15 min exposure periods as well as in a 10 min SP-exposed shrew group.
To collect blood, shrews were rapidly euthanized with isoflurane (Vedco, St. Joseph, Mo.) one at a time. Then, each shrew was laid on its back and taped to a metal tray, and cut transversely under the diaphragm and along the sides towards the arms to allow the ribcage to be lifted away. The heart was then held with forceps, and a 0.5 cc syringe with 28 ga hypodermic needle was inserted into the left ventricle. Blood was pulled gently into the syringe directly from the ventricle until the descending aorta appeared clear (approximately 50 μl -100 μl total volume), and rapidly transferred to a non-heparinized tube for centrifugation and removal of red blood cells. Brain and gut tissue were rapidly dissected following blood collection and decapitation. Preliminary sample preparation procedures were carried out to optimize detection conditions.
Because proteases can be deactivated by heat (El-Salhy, 107 Upsala J. Med. Sci. 101-10 (2002)), at basic pH (Crawford & Kalmakoff, 24 J. Virol. 412-15 (1977)), and in the presence of EDTA (Wei & Bobek, 49 Antimicrob. Agents Chemother. 2336-42 (2005)), the entire intestine was immediately immersed in a 70° C. preheated, 5 ml solution of normal saline containing […] EDTA at pH8.0. After a 5 min exposure, each gut was thrice flushed and rinsed with 5 ml of the saline solution and then allowed to cool down naturally to room temperature. Then, each gut was dissected and the duodenum and jejunum samples were placed separately in test tubes containing 1 ml assay buffer. The dissected frontal cortex and brain stem samples were placed in different test tubes containing 0.5 ml assay buffer. Each sample was homogenized using a tissue tearor (Biospec) set at level 5 for 15sec. The homogenates were then centrifuged at 17,000×g for 15 min at 4° C. The supernatants were obtained and saved at −80° C. until used for the EIA detection of SP. Samples were analyzed for SP using the “Correlate-EIA” kit from Assay Designs using a microplate reader.
(§1) The data on the frequency of emesis and scratchings were analyzed by the Kruskal-Wallis (KW) nonparametric one-way analysis of variance (ANOVA) and post hoc analysis by Dunn's multiple comparisons test or Mann-Whitney test. A P value of <0.05 was necessary to attain statistical significance. The incidence of emesis (number of shrews vomiting) was analyzed by the Fisher's exact test to determine whether there were differences between groups. When appropriate, pairwise comparisons were also made by this method. Two-way analysis of variance using the Kruskal-Wallis or Fisher's exact tests were initially utilized to respectively analyze the dose-response results of GR73632 on emesis and scratching behaviors, and percentage of shrews vomiting in saporin- and corresponding saline-pretreated control shrews. […] For some emesis data, the two-tailed Mann-Whitney test was used. The SP tissue concentration data were analyzed by a one-way ANOVA followed by Dunnett's t test as post hoc analysis. Fos-IR was quantified by counting immunopositive nuclei within each hemisection containing the region of interest (ROI). The number of nuclei was averaged across sections with the ROI for each animal, and the group mean and standard error obtained.

Least Shrew [2] = assay: Dose response emesis and scratching studies with tachykinin receptor agonists; settings: for increase in the frequency of vomiting vs vehicle control: 30 min observation
Excerpt: The present protocols were based upon preliminary studies as well as published findings in the Least Shrew. Darmani, 2001a; Darmani et al., 69 Pharmacol. Biochem. Behay. 239-49 (2001b). On the test day, the shrews were allowed to acclimate to the test laboratory for at least one hour prior to experimentation. To habituate the animals to the test environment, each shrew was randomly selected and transferred to a 20 cm×18 cm×21 cm clean clear plastic cage and offered four mealworms (Tenebrio sp.) 30 min prior to experimentation. […]
as §1

Least Shrew [3] = assay: Emetic effect of arachidonic acid metabolites and leukotrienes in the Least Shrew; settings: found experimentally
Method: Varying doses of leukotriene LTC4 were administered by intraperitoneal injection, and dose-response emetic effects recorded for 30 min post-injection observation period. The graph in FIG. 20 depicts enhancements in the frequency (mean±S.E.M.) of emesis.

With “SP: tachykinin undecapeptide, nonselective NK1 receptor agonist, purchased from Sigma/RBI” the “time for brain stem SP-tissue level to attain maximal levels” value [1] was 15 min, the “decrease of basal frontal cortex SP concentration” value (shortened to “decrease”) ([1]; 5 min) was 34% and the “increase of basal SP blood serum level” value ([1]; 5 min post-injection) was 3488 fold. For the same compound, the “increase of brain stem SP over basal level” value ([1]; 5 min post-injection) was 156%, the “decrease” value ([1]; 15 min) was 68% and the “increase of brain stem SP over basal level” value ([1]; 15 min post-injection) was 287%. For the same compound, the “brain stem SP level” value ([1]; 30 min) was “returned to basal tissue level”, the “decrease” value ([1]; 30 min) was 89% and the “SP blood serum level” value ([1]; by 10 min) was “rapidly declined”. The “duodenal SP tissue level increase over basal levels” value ([1]; within 5 min) was 1883%, the “jejunal SP tissue level increase over basal level” value ([1]; within 5 min) was 2133% and the emetic activity (Least Shrew [2]; 10 mg/kg i.p.) was “inactive”. For the same compound, the emetic activity (Least Shrew [2]; 25 mg/kg i.p.) was “inactive”, the “percentage of shrews vomiting” value (Least Shrew [2]; 50 mg/kg i.p.) was 82% and the “increase in the frequency of vomiting vs vehicle control” value (Least Shrew [2]; 50 mg/kg i.p.) was 382%. The “percentage of shrews vomiting” value (Least Shrew [2]; 100 mg/kg i.p.) was 78%, the “increase in the frequency of vomiting vs vehicle control” value (Least Shrew [2]; 100 mg/kg i.p.) was 322% and the “other overt behavioral effect (e.g. scratching)” value (Least Shrew [2]; at the doses tested, 10-100 mg/kg i.p.) was “no other overt behavioral effect”. The “onset of first emesis after injection” value (Least Shrew [2]; i.p. agonist injection) was 1 to 2 min.

With `CCCCC/C=C\C\C=C/C=C/C=C/[C@@H](SC[C@H](N)C(=O)NCC(=O)O)[C@@H](O)CCCC(=O)O` [LTD4] the “emesis in the Least Shrew” value (Least Shrew [3]) was “potent emetogens; also recorded: produce emesis”.

For `CCCCC/C=C\C[C@@H](O)/C=C/C=C/C=C\[C@@H](O)CCCC(=O)O` [LTB4], the “emesis in the Least Shrew” value (Least Shrew [3]) was “non-emetic”.

In the case of `CCCCC/C=C\C\C=C/C=C/C=C/[C@@H]1O[C@H]1CCCC(=O)O` [LTA4], the “emesis in the Least Shrew” value (Least Shrew [3]) is reported as “non-emetic”.

In the case of `CCCCC[C@H](O)/C=C/[C@@H]1[C@H]2C/C(=C/CCCC(=O)O)O[C@H]2C[C@H]1O` [PGI2], the “emesis in the Least Shrew” value (Least Shrew [3]) is reported as “non-emetic”.

With `O=C(O)CCC/C=C\C[C@H]1C(=O)C[C@@H](O)[C@@H]1/C=C/[C@@H](O)CCCCCO` [20 Hydroxy PGE2] the “emesis in the Least Shrew” value (Least Shrew [3]) was “produce emesis”.

In the case of `CCCCC/C=C\C/C=C\C/C=C\C/C=C\CCCC(=O)O` [arachidonic acid], the “emesis in the Least Shrew” value (Least Shrew [3]) is reported as “produce emesis”.
